The values below are quoted from earlier work in patent US12064484B2, “Compositions for introducing RNA into cells” (ETHRIS GMBH, priority 2013, dated 2024).

In the data set the test system is cell culture. To be noted: cholesterol-polyamine carbamates.

For `CC(C)CCCC(C)C1CCC2C3CC=C4CC(OC(=O)NCCNCCCNCCN)CCC4(C)C3CCC12C` (centres unmarked) [ethyl/propyl/ethyl], the “reporter gene expression (beta galactosidase plasmid DNA)” value is on record as “three- to tenfold less efficient”.
Turning to `CC(C)CCCC(C)C1CCC2C3CC=C4CC(OC(=O)NCCCNCCCCNCCCN)CCC4(C)C3CCC12C` (centres unmarked) [propyl/butyl/propyl], the “reporter gene expression (beta galactosidase plasmid DNA)” value is reported as “by far the highest reporter gene expression”.
